Reference: patent US7951838B2, “Substituted spirocyclic chromanamine compounds as Beta-Secretase modulators and methods of use” (Amgen Inc., priority 2007, dated 2011)

Legend:
[1] = molecular target: T1, BACE (Homo sapiens, UniProt P56817); assay: In vitro enzymatic BACE FRET assay (Enzyme Assay); type: biochemical; settings: pH 4.2, enzyme 0.2 nM, FRET substrate 50 nM
T1 construct: Cells stably expressing Amyloid Precursor Protein (APP) were plated at a density of 40K cells/well in 96 well plates; endogenous in cells
Procedure: In Vitro Enzymatic BACE FRET (Fluorescence Resonance Energy Transfer) Assay (Enzyme Assay)
Assay buffer is 0.05 M acetate, pH 4.2, 10% DMSO final, 100 uM genapol (which is a nonionic detergent, below it's Critical Micelle Concentration). Enzyme (0.2 nM) is pre-incubated for one hour with inhibitors added in 1 uL of DMSO. Then the assay is started by the addition of FRET substrate (50 nM) and incubated for one hour. The FRET assay is terminated with by addition of Tris buffer, which raises the pH to neutrality, and the fluorescence is determined The FRET substrate is a peptide with commercially available fluorophore and quencher, on opposite sides of the BACE cleavage site. Proteolytic cleavage of the FRET substrate releases quenching of fluorescence (excitation 488 nm and […]).

[2] = molecular target: T1, BACE; assay: BACE cell-based assay (Cell Assay), inhibition of Aβ40 by sandwich ELISA; settings: Aβ40 in conditioned medium of cells stably expressing APP, 24 h incubation
Procedure: BACE Cell-Based Assay (Cell Assay)
The cell-based assay measures inhibition or reduction of Aβ40 in conditioned medium of test compound treated cells expressing amyloid precursor protein.
Cells stably expressing Amyloid Precursor Protein (APP) were plated at a density of 40K cells/well in 96 well plates (Costar). The cells were cultivated for 24 hours at 37° C. and 5% CO2 in DMEM supplemented with 10% FBS. The test compounds were then added to cells in 10-point dose response concentrations with the starting concentration being either 100 μM or 10 μM. The compounds were diluted from stock solutions in DMSO and the final DMSO concentration of the test compounds on cells was 0.1%. After 24 h of incubation with the test compounds the supernatant conditioned media was collected and the Aβ40 levels were determined using a sandwich ELISA. The IC50 of the compound was calculated from the percent of control or percent inhibition of Aβ40 as a function of the concentration of the test compound.
The sandwich ELISA to detect Aβ40 was performed in 96 well microtiter plates, which were pre-treated with goat anti-rabbit IgG (Pierce). The capture and detecting antibody pair that were used to detect Aβ40 from cell supernatants were affinity purified pAb40 (Biosource) and biotinylated 6E10 (Signet Labs Inc.), respectively. The optimal concentration for the pAb40 antibody was 3 μg/ml in Superblock/TBS (Pierce) that was supplemented with 0.05% Tween 20 (Sigma). Optimal concentration for the detection antibody 6E10-biotinylated was 0.5 μg/ml in Superblock/TBS (Pierce) that had been supplemented with 2% normal goat serum and 2% normal mouse serum.
Cellular supernatants were incubated with the capture antibody for 3 h at 4° C., followed by 3 wash steps in TBS-tween (0.05%). The detecting antibody incubation was for 2 h at 4° C., again followed by the wash steps as described previously. The final readout of the ELISA is Time-Resolved Fluorescence (counts per minute) using Delfia reagents Streptavidin-Europium and Enhancement solutions (Perkin Elmer) and the Victor 2 multilabel counter (Perkin Elmer).

T1 sequence (P56817 46-501): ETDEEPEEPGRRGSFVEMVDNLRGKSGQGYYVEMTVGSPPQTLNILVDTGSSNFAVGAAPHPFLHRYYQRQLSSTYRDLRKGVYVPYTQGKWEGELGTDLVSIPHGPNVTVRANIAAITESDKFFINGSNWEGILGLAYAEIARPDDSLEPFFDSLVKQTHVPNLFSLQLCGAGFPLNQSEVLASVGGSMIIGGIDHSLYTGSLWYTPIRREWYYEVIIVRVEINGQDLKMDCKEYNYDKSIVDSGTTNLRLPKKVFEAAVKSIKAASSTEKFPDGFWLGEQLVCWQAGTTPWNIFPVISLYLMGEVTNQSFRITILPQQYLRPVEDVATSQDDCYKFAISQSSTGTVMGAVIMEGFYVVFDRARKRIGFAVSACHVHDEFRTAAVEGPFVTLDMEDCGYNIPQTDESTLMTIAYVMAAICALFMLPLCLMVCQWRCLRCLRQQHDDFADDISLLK

CC(C)(C)Cc1cnc2c(c1)[C@@H](NC[C@@H](O)[C@H](Cc1cc(F)cc(F)c1)Nc1nccn3cnnc13)CC1(CCC1)O2 [Example 21, (2R,3S)-4-(3,5-difluorophenyl)-1-(((4′S)-6′-(2,2-dimethylpropyl)-3′,4′-dihydrospiro[cyclobutane-1,2′-pyrano[2,3-b]pyridin]-4′-yl)amino)-3-([1,2,4]triazolo[4,3-a]pyrazin-8-ylamino)-2-butanol]
IC50 [1]: 0.1 to 1 µM | IC50 [2]: < 0.1 µM

O[C@H](CN[C@H]1CC2(CCC2)Oc2ccc(Br)cc21)[C@H](Cc1ccccc1)Nc1nccn2cnnc12 [Example 22, (2R,3S)-1-(((4S)-6-bromo-3,4-dihydrospiro[chromene-2,1′-cyclobutan]-4-yl)amino)-4-phenyl-3-([1,2,4]triazolo[4,3-a]pyrazin-8-ylamino)-2-butanol]
IC50 [1]: 10 to 25 µM | IC50 [2]: 5 to 10 µM

CC(C)(C)Cc1cnc2c(c1)[C@@H](NC[C@@H](O)[C@H](Cc1cc(F)cc(F)c1)Nc1ccnc(Cl)n1)CC1(CCC1)O2 [Example 24, (2R,3S)-3-((2-chloro-4-pyrimidinyl)amino)-4-(3,5-difluorophenyl)-1-(((4′S)-6′-(2,2-dimethylpropyl)-3′,4′-dihydrospiro[cyclobutane-1,2′-pyrano[2,3-b]pyridin]-4′-yl)amino)-2-butanol]
IC50 [1]: < 0.1 µM | IC50 [2]: 0.1 to 1 µM

CC(C)(C)Cc1cnc2c(c1)[C@@H](NC[C@@H](O)[C@H](Cc1cc(F)cc(F)c1)Nc1ncccn1)CC1(CCC1)O2 [Example 25, (2R,3S)-4-(3,5-difluorophenyl)-1-(((4′S)-6′-(2,2-dimethylpropyl)-3′,4′-dihydrospiro[cyclobutane-1,2′-pyrano[2,3-b]pyridin]-4′-yl)amino)-3-(2-pyrimidinylamino)-2-butanol]
IC50 [1]: 0.1 to 1 µM | IC50 [2]: 1 to 5 µM

CC(C)(C)Cc1cnc2c(c1)[C@@H](NC[C@@H](O)[C@H](Cc1cc(F)cc(F)c1)Nc1ccccc1F)CC1(CCC1)O2 [Example 26, (2R,3S)-4-(3,5-difluorophenyl)-1-(((4′S)-6′-(2,2-dimethylpropyl)-3′,4′-dihydrospiro[cyclobutane-1,2′-pyrano[2,3-b]pyridin]-4′-yl)amino)-3-((2-fluorophenyl)amino)-2-butanol]
IC50 [1]: 1 to 5 µM | IC50 [2]: 10 to 25 µM

CCc1ccc2c(c1)[C@@H](NC[C@@H](O)[C@H](Cc1cccc(C#N)c1)Nc1ccccc1F)CC1(CCC1)O2 [Example 27, 3-((2S,3R)-4-(((4S)-6-ethyl-3,4-dihydrospiro[chromene-2,1′-cyclobutan]-4-yl)amino)-2-((2-fluorophenyl)amino)-3-hydroxybutyl)benzonitrile]
IC50 [1]: 1 to 5 µM | IC50 [2]: 0.1 to 1 µM

CC(C)(C)Cc1cnc2c(c1)[C@@H](NC[C@@H](O)[C@H](Cc1ccc(F)cc1)Nc1cc(Cl)ncn1)CC1(CCC1)O2 [Example 28, (2R,3S)-3-((6-chloro-4-pyrimidinyl)amino)-1-(((4′S)-6′-(2,2-dimethylpropyl)-3′,4′-dihydrospiro[cyclobutane-1,2′-pyrano[2,3-b]pyridin]-4′-yl)amino)-4-(4-fluorophenyl)-2-butanol]
IC50 [1]: 1 to 5 µM | IC50 [2]: 10 to 25 µM

CC(C)(C)Cc1cnc2c(c1)[C@@H](NC[C@@H](O)[C@H](Cc1ccc(F)cc1)Nc1ccnc(Cl)n1)CC1(CCC1)O2 [Example 29, (2R,3S)-3-((2-chloro-4-pyrimidinyl)amino)-1-(((4′S)-6′-(2,2-dimethylpropyl)-3′,4′-dihydrospiro[cyclobutane-1,2′-pyrano[2,3-b]pyridin]-4′-yl)amino)-4-(4-fluorophenyl)-2-butanol]
IC50 [1]: 1 to 5 µM | IC50 [2]: 10 to 25 µM

CC(C)(C)Cc1cnc2c(c1)[C@@H](NC[C@@H](O)[C@H](Cc1ccc(F)cc1)Nc1ncnc3ccsc13)CC1(CCC1)O2 [Example 30, (2R,3S)-1-(((4′S)-6′-(2,2-dimethylpropyl)-3′,4′-dihydrospiro[cyclobutane-1,2′-pyrano[2,3-b]pyridin]-4′-yl)amino)-4-(4-fluorophenyl)-3-(thieno[3,2-d]pyrimidin-4-ylamino)-2-butanol]
IC50 [1]: 5 to 10 µM | IC50 [2]: 10 to 25 µM

CCc1ccc2c(c1)[C@@H](NC[C@@H](O)[C@H](Cc1ccccc1)Nc1ccccc1F)CC1(CCC1)O2 [Example 31, (2R,3S)-1-(((4S)-6-ethyl-3,4-dihydrospiro[chromene-2,1′-cyclobutan]-4-yl)amino)-3-((2-fluorophenyl)amino)-4-phenyl-2-butanol]
IC50 [1]: 5 to 10 µM | IC50 [2]: 10 to 25 µM

CCc1ccc2c(c1)[C@@H](NC[C@@H](O)[C@H](Cc1ccccc1)Nc1ccccc1F)CC1(CCCC1)O2 [Example 32, (2R,3S)-1-(((4S)-6-ethyl-3,4-dihydrospiro[chromene-2,1′-cyclopentan]-4-yl)amino)-3-((2-fluorophenyl)amino)-4-phenyl-2-butanol]
IC50 [1]: 5 to 10 µM | IC50 [2]: 10 to 25 µM

CCc1ccc2c(c1)[C@@H](NC[C@@H](O)[C@H](Cc1ccccc1)Nc1nccc(C(F)(F)F)n1)CC1(CCC1)O2 [Example 33, (2R,3S)-1-((S)-6-ethyl-2,2-spirocyclobutyl-chroman-4-ylamino)-4-phenyl-3-(4-(trifluoromethyl)pyrimidin-2-ylamino)butan-2-ol]
IC50 [1]: 10 to 25 µM | IC50 [2]: 10 to 25 µM

CSc1nc(Cl)cc(N[C@@H](Cc2ccc(F)cc2)[C@H](O)CN[C@H]2CC3(CCC3)Oc3ncc(CC(C)(C)C)cc32)n1 [Example 34, (2R,3S)-3-((6-chloro-2-(methylthio)-4-pyrimidinyl)amino)-1-(((4′S)-6′-(2,2-dimethylpropyl)-3′,4′-dihydrospiro[cyclobutane-1,2′-pyrano[2,3-b]pyridin]-4′-yl)amino)-4-(4-fluorophenyl)-2-butanol]
IC50 [1]: 5 to 10 µM | IC50 [2]: 10 to 25 µM

CC(C)(C)Cc1cnc2c(c1)[C@@H](NC[C@@H](O)[C@H](Cc1ccc(F)cc1)Nc1ncnc3sccc13)CC1(CCC1)O2 [Example 35, (2R,3S)-1-(((4′S)-6′-(2,2-dimethylpropyl)-3′,4′-dihydrospiro[cyclobutane-1,2′-pyrano[2,3-b]pyridin]-4′-yl)amino)-4-(4-fluorophenyl)-3-(thieno[2,3-d]pyrimidin-4-ylamino)-2-butanol]
IC50 [1]: 10 to 25 µM | IC50 [2]: 0.1 to 1 µM

CCc1ccc2c(c1)[C@@H](NC[C@@H](O)[C@H](Cc1ccccc1)Nc1nc3ccccc3o1)CC1(CCC1)O2 [Example 36, (2R,3S)-3-(1,3-benzoxazol-2-ylamino)-1-(((4S)-6-ethyl-3,4-dihydrospiro[chromene-2,1′-cyclobutan]-4-yl)amino)-4-phenyl-2-butanol]
IC50 [1]: 10 to 25 µM | IC50 [2]: 1 to 5 µM

CCc1ccc2c(c1)[C@@H](NC[C@@H](O)[C@H](Cc1ccccc1)Nc1nccc(CC)n1)CC1(CCC1)O2 [Example 37, (2R,3S)-1-((S)-6-ethyl-2,2-spirocyclobutyl-chroman-4-ylamino)-4-phenyl-3-(4-ethylpyrimidin-2-ylamino)butan-2-ol]
IC50 [1]: 10 to 25 µM | IC50 [2]: 5 to 10 µM

CCc1ccc2c(c1)[C@@H](NC[C@@H](O)[C@H](Cc1ccccc1)Nc1ncccn1)CC1(CCC1)O2 [Example 38, (2R,3S)-1-((S)-6-ethyl-2,2-spirocyclobutyl-chroman-4-ylamino)-4-phenyl-3-(pyrimidin-2-ylamino)butan-2-ol]
IC50 [1]: 10 to 25 µM | IC50 [2]: 10 to 25 µM

CCc1ccc2c(c1)[C@@H](NC[C@@H](O)[C@H](Cc1ccccc1)Nc1cnccn1)CC1(CCCC1)O2 [Example 40, (2R,3S)-1-(((4S)-6-ethyl-3,4-dihydrospiro[chromene-2,1′-cyclopentan]-4-yl)amino)-4-phenyl-3-(2-pyrazinylamino)-2-butanol]
IC50 [2]: 10 to 25 µM

CCc1ccc2c(c1)[C@@H](NC[C@@H](O)[C@H](Cc1ccccc1)Nc1nc3ccccc3s1)CC1(CCC1)O2 [Example 42, (2R,3S)-3-(1,3-benzothiazol-2-ylamino)-1-(((4S)-6-ethyl-3,4-dihydrospiro[chromene-2,1′-cyclobutan]-4-yl)amino)-4-phenyl-2-butanol]
IC50 [1]: 10 to 25 µM

CCc1ccc2c(c1)[C@@H](NC[C@@H](O)[C@H](Cc1ccccc1)Nc1ccncc1)CC1(CCC1)O2 [Example 44, (2R,3S)-1-(((4S)-6-ethyl-3,4-dihydrospiro[chromene-2,1′-cyclobutan]-4-yl)amino)-4-phenyl-3-(4-pyridinylamino)-2-butanol]
IC50 [2]: 1 to 5 µM
